Reference: US8945864B2, “Method of determining 1,5-anhydroglucitol, and reagent composition for determining 1,5-anhydroglucitol” (Ikeda Food Research Co., Ltd., priority 2006, dated 2015)
Like-named read-outs stand apart in the source and are kept apart here.

Legend:
sorbose dehydrogenase [1] = target: T1, sorbose dehydrogenase (Sinorhizobium meliloti, UniProt Q92YU0); assay: Substrate specificity of sorbose dehydrogenase (relative reactivity, DCIP method); type: biochemical, Sinorhizobium sp. 97507
T1 sequence (Q92YU0 entry or part of it): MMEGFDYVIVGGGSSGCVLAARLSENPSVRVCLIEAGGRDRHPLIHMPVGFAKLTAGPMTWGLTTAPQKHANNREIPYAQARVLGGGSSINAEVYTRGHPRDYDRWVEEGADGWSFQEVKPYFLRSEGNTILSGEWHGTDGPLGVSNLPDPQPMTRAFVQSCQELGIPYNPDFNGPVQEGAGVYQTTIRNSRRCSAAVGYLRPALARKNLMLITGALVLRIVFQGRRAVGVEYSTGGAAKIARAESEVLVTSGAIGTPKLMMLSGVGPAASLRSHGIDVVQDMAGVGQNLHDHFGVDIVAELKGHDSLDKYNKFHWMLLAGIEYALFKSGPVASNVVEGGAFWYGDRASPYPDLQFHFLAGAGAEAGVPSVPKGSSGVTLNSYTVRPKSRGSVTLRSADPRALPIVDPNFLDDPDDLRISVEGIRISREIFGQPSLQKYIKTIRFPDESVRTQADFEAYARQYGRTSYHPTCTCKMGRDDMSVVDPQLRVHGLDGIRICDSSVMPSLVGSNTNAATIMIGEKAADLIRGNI
Protocol: One mL of a 0.1 M potassium phosphate buffer, pH 7.0, 1.0 mL of 1.0 M L-sorbose, 0.14 mL of 3 mM 2,6-dichlorophenol indophenol (DCIP), 0.2 mL of 3 mM 1-methoxy-5-methylphenazinium methyl sulfate, and 0.61 mL of water were added to a 3 mL quartz cell, and the quartz cell was set to a spectrophotometer equipped with a thermostat cell holder, and incubated at 37° C. for ten minutes. Then, 0.05 mL of the enzyme solution was added to the quartz cell, and changes in absorbance of DCIP at 600 nm (AABS600/min) was measured at 37° C. As the molar extinction coefficient of DCIP at pH 7.0 is known as 16.3 mM^−1, and the amount of enzyme that reduced 1 μmol of DCIP for one minute is defined as one unit. Following the definition, the concentration of enzyme activity was calculated based on the following equation. enzyme activity (units/mL)=(−ΔABS600/min×3.0×dilution rate)/(16.3×1.0×0.05)
Measurement conditions in the above “method of measuring enzyme activity” were suitably modified as necessary, and the optimal pH, pH stability, optimal temperature, temperature stability, substrate specificity, Km value, total molecular weight, subunit molecular weight, inhibitor, and product of the enzyme reaction were identified. The properties of the enzyme were evaluated in accordance with the following tests.
[…]. The results are shown as a relative value of each substrate with reference to the value of activity of L-sorbose as a standard.

sorbose dehydrogenase [2] = target: T1, sorbose dehydrogenase; assay: Inhibitor test: additive in the reaction solution for the activity measurement; type: biochemical, Sinorhizobium sp. 97507; conditions: for activity at 1000 µM: read-out: Relative activity (%)
[3] = substrate 333 mM (lactose 167 mM)
[4] = additive final concentration 1.0 mM, control without additive = 100%
[5] = substrate final concentration 333 mM, […]
[6] = substrate final concentration 333 mM, relative to activity of L-sorbose as standard (100)

C[C@H](O)[C@H](O)[C@@H](O)[C@@H](O)C=O [L-rhamnose]
Effect of the sorbose dehydrogenase on the substrate (in words) (sorbose dehydrogenase [1]; [3]): little effect

[Cl][Mn][Cl] [MnCl2]
Inhibition of the sorbose dehydrogenase (in words) (sorbose dehydrogenase [2]): remarkably inhibited
Relative activity (%) (sorbose dehydrogenase [2]): 11%

[Cl-].[Na+] [NaCl]
Relative activity (%) (sorbose dehydrogenase [2]): 85%

OC[C@H]1O[C@@H](O[C@H]2[C@H](O)[C@@H](O)C(O)O[C@@H]2CO)[C@H](O)[C@@H](O)[C@H]1O (stereo partly shown) [Lactose]
Effect of the sorbose dehydrogenase on the substrate (in words) (sorbose dehydrogenase [1]; [3]): little effect
Relative activity (%) (sorbose dehydrogenase [1]; substrate final concentration 167 mM (lactose), […]): 0.71%

O=S(=O)(O)c1cc(O)c(O)c(S(=O)(=O)O)c1 [Tiron]
activity at 1000 µM (sorbose dehydrogenase [2]; [4]): 89%

[Cl][Sn][Cl] [SnCl2]
Relative activity (%) (sorbose dehydrogenase [2]; additive final concentration 0.5 mM, control without additive = 100%): 86%

c1cnc2c(c1)ccc1cccnc12 [1,10-phenanthroline]
activity at 1000 µM (sorbose dehydrogenase [2]; [4]): 77%

O=C(CO)[C@@H](O)[C@H](O)[C@H](O)CO [D-(−)-fructose]
Effect of the sorbose dehydrogenase on the substrate (in words) (sorbose dehydrogenase [1]; [3]): little effect
Relative activity (%) (sorbose dehydrogenase [1]; [5]): 0%

O=C(O)CC(O)C(=O)O (racemic) [DL-malic acid]
Relative activity (%) (sorbose dehydrogenase [2]; [4]): 85%

OO [H2O2]
Relative activity (%) (sorbose dehydrogenase [2]): 98%

CoCl2
Relative activity (%) (sorbose dehydrogenase [2]): 86%

O[C@H]1[C@H](O)[C@@H](O)[C@H](O)[C@@H](O)[C@H]1O [inositol]
Effect of the sorbose dehydrogenase on the substrate (in words) (sorbose dehydrogenase [1]; [3]): little effect

CC(O)CO (stereo not shown) [propylene glycol]
Effect of the sorbose dehydrogenase on the substrate (in words) (sorbose dehydrogenase [1]; [3]): little effect

[Ba+2].[Cl-].[Cl-] [BaCl2]
Relative activity (%) (sorbose dehydrogenase [2]; [4]): 80%

CC(C)CO [2-methyl-1-propanol]
Effect of the sorbose dehydrogenase on the substrate (in words) (sorbose dehydrogenase [1]; [3]): weak effect
Relative activity (%) (sorbose dehydrogenase [1]; [6]): 2.06%

OC[C@H]1O[C@H](OC[C@H]2O[C@H](O[C@]3(CO)O[C@H](CO)[C@@H](O)[C@@H]3O)[C@H](O)[C@@H](O)[C@@H]2O)[C@H](O)[C@@H](O)[C@H]1O [D-raffinose]
Effect of the sorbose dehydrogenase on the substrate (in words) (sorbose dehydrogenase [1]; [3]): little effect

O=C([O-])CN(CCN(CC(=O)O)CC(=O)O)CC(=O)[O-].[Na+].[Na+] [EDTA-2Na]
Relative activity (%) (sorbose dehydrogenase [2]): 102%

O=C(O)/C=C/C(=O)O [Fumaric acid]
activity at 1000 µM (sorbose dehydrogenase [2]): 99%

O=C(O)CI [Iodoacetic acid]
activity at 1000 µM (sorbose dehydrogenase [2]): 83%

OC[C@@H](O)[C@H](O)[C@@H](O)CO [Xylitol]
Effect of the sorbose dehydrogenase on the substrate (in words) (sorbose dehydrogenase [1]; [3]): little effect
Relative activity (%) (sorbose dehydrogenase [1]; [6]): 0.89%

[Cl][Pb][Cl] [PbCl2]
Relative activity (%) (sorbose dehydrogenase [2]): 83%

2-(p-)nitrobenzoic acid
Relative activity (%) (sorbose dehydrogenase [2]; [4]): 75%

[Cl][Cu][Cl] [CuCl2]
Relative activity (%) (sorbose dehydrogenase [2]; [4]): 0%
Inhibition of the sorbose dehydrogenase (in words) (sorbose dehydrogenase [2]; heavy metal ions, 1 mM): remarkably inhibited

OC[C@@H](O)[C@@H](O)[C@H](O)[C@@H](O)CO [D-sorbitol]
Effect of the sorbose dehydrogenase on the substrate (in words) (sorbose dehydrogenase [1]; [3]): little effect

OC[C@H]1O[C@H](O[C@H]2O[C@H](CO)[C@@H](O)[C@H](O)[C@H]2O)[C@H](O)[C@@H](O)[C@@H]1O [D-trehalose]
Effect of the sorbose dehydrogenase on the substrate (in words) (sorbose dehydrogenase [1]; [3]): little effect

NN=C(N)N.O=S(=O)(O)O [Aminoguanidine sulfate]
Relative activity (%) (sorbose dehydrogenase [2]): 91%

[Cl][Hg][Cl] [HgCl2]
Relative activity (%) (sorbose dehydrogenase [2]; [4]): 0%
Inhibition of the sorbose dehydrogenase (in words) (sorbose dehydrogenase [2]; heavy metal ions, 1 mM): remarkably inhibited

[Cl-].[Cl-].[Zn+2] [ZnCl2]
Relative activity (%) (sorbose dehydrogenase [2]; [4]): 98%

CCO [Ethanol]
Effect of the sorbose dehydrogenase on the substrate (in words) (sorbose dehydrogenase [1]): little effect
Relative activity (%) (sorbose dehydrogenase [1]): 0%

CCN1C(=O)C=CC1=O [N-ethylmaleimide]
activity at 1000 µM (sorbose dehydrogenase [2]; [4]): 88%

O=C(O)CC(O)(CC(=O)O)C(=O)O [Citric acid]
activity at 1000 µM (sorbose dehydrogenase [2]): 86%

OCC(O)CO [Glycerol]
Effect of the sorbose dehydrogenase on the substrate (in words) (sorbose dehydrogenase [1]; [3]): little effect
Relative activity (%) (sorbose dehydrogenase [1]; [5]): 0%

N[C@@H]1CONC1=O [D-cycloserine]
Relative activity (%) (sorbose dehydrogenase [2]; [4]): 90%

[Cl][Cd][Cl] [CdCl2]
Relative activity (%) (sorbose dehydrogenase [2]): 91%

[N-]=[N+]=[N-].[Na+] [NaN3]
Relative activity (%) (sorbose dehydrogenase [2]): 115%

[Ca+2].[Cl-].[Cl-] [CaCl2]
Relative activity (%) (sorbose dehydrogenase [2]): 92%

CC(C)O [2-propanol]
Effect of the sorbose dehydrogenase on the substrate (in words) (sorbose dehydrogenase [1]; [3]): little effect
Relative activity (%) (sorbose dehydrogenase [1]; [6]): 0.39%

OC[C@H]1O[C@@H](O[C@H]2[C@H](O)[C@@H](O)[C@H](O)O[C@@H]2CO)[C@H](O)[C@@H](O)[C@@H]1O [D-cellobiose]
Effect of the sorbose dehydrogenase on the substrate (in words) (sorbose dehydrogenase [1]; [3]): little effect

CO [methanol]
Effect of the sorbose dehydrogenase on the substrate (in words) (sorbose dehydrogenase [1]): little effect

NC(N)=O [Urea]
Relative activity (%) (sorbose dehydrogenase [2]; [4]): 92%

[Cl][Al]([Cl])[Cl] [AlCl3]
Relative activity (%) (sorbose dehydrogenase [2]; [4]): 109%

O=C(O)c1ccccc1 [Benzoic acid]
activity at 1000 µM (sorbose dehydrogenase [2]): 101%

O=C(CO)[C@H](O)[C@@H](O)[C@H](O)CO [D-(−)-sorbose]
Effect of the sorbose dehydrogenase on the substrate (in words) (sorbose dehydrogenase [1]; [3]): weak effect
Relative activity (%) (sorbose dehydrogenase [1]; [5]): 2.96%

[Cl-].[Li+] [LiCl]
Relative activity (%) (sorbose dehydrogenase [2]; [4]): 98%

O=C[C@@H](O)[C@@H](O)[C@H](O)[C@H](O)CO [D-(+)-mannose]
Effect of the sorbose dehydrogenase on the substrate (in words) (sorbose dehydrogenase [1]; [3]): little effect
Relative activity (%) (sorbose dehydrogenase [1]; [5]): 0.15%

C=CCO [Allyl alcohol]
Effect of the sorbose dehydrogenase on the substrate (in words) (sorbose dehydrogenase [1]; [3]): weak effect
Relative activity (%) (sorbose dehydrogenase [1]; [5]): 3.80%

O=C(O)C(O)C(O)C(=O)O (stereo not drawn) [meso-tartaric acid]
Relative activity (%) (sorbose dehydrogenase [2]; [4]): 94%

CCCO [1-propanol]
Effect of the sorbose dehydrogenase on the substrate (in words) (sorbose dehydrogenase [1]; [3]): little effect
Relative activity (%) (sorbose dehydrogenase [1]; [6]): 0.75%

O=C[C@H](O)[C@@H](O)[C@@H](O)CO [L-arabinose]
Effect of the sorbose dehydrogenase on the substrate (in words) (sorbose dehydrogenase [1]; [3]): little effect

CCCCO [1-butanol]
Effect of the sorbose dehydrogenase on the substrate (in words) (sorbose dehydrogenase [1]): weak effect
Relative activity (%) (sorbose dehydrogenase [1]): 1.29%

[Cl-].[Cl-].[Mg+2] [MgCl2]
Relative activity (%) (sorbose dehydrogenase [2]): 93%

O=C(O)C(O)C(O)C(=O)O (racemic) [DL-tartaric acid]
Relative activity (%) (sorbose dehydrogenase [2]; [4]): 86%

CCC(C)O (stereo not shown) [2-butanol]
Effect of the sorbose dehydrogenase on the substrate (in words) (sorbose dehydrogenase [1]): little effect

O=C[C@H](O)[C@@H](O)[C@@H](O)[C@H](O)CO [D-(+)-galactose]
Effect of the sorbose dehydrogenase on the substrate (in words) (sorbose dehydrogenase [1]; [3]): weak effect
Relative activity (%) (sorbose dehydrogenase [1]; [5]): 1.69%

OC[C@H]1O[C@@](CO)(O[C@H]2O[C@H](CO)[C@@H](O)[C@H](O)[C@H]2O)[C@@H](O)[C@@H]1O [sucrose]
Effect of the sorbose dehydrogenase on the substrate (in words) (sorbose dehydrogenase [1]; [3]): little effect

O=C[C@H](O)[C@@H](O)[C@H](O)[C@H](O)CO [D-(+)-glucose]
Effect of the sorbose dehydrogenase on the substrate (in words) (sorbose dehydrogenase [1]; [3]): weak effect
Relative activity (%) (sorbose dehydrogenase [1]; [5]): 1.22%

Acriflavin
Relative activity (%) (sorbose dehydrogenase [2]; [4]): 66%

CC(O)C(C)O (stereo not shown) [2,3-butanediol]
Effect of the sorbose dehydrogenase on the substrate (in words) (sorbose dehydrogenase [1]): little effect
Relative activity (%) (sorbose dehydrogenase [1]): 0.26%

Triton X-100
Relative activity (%) (sorbose dehydrogenase [2]; [4]): 39%

OC[C@H]1OC[C@H](O)[C@@H](O)[C@@H]1O [1,5-anhydroglucitol]
Effect of the sorbose dehydrogenase on the substrate (in words) (sorbose dehydrogenase [1]; [3]): strong effect
Relative activity (%) (sorbose dehydrogenase [1]; [6]): 79.1%

[Cl][Ni][Cl] [NiCl2]
Relative activity (%) (sorbose dehydrogenase [2]): 80%

OC[C@@H](O)[C@@H](O)CO [meso-erythritol]
Effect of the sorbose dehydrogenase on the substrate (in words) (sorbose dehydrogenase [1]; [3]): little effect

O=C[C@H](O)[C@@H](O)[C@H](O)CO [D-xylose]
Effect of the sorbose dehydrogenase on the substrate (in words) (sorbose dehydrogenase [1]; [3]): little effect

OC[C@@H](O)[C@@H](O)[C@H](O)[C@H](O)CO [D-mannitol]
Effect of the sorbose dehydrogenase on the substrate (in words) (sorbose dehydrogenase [1]; [3]): little effect

OC[C@H]1O[C@H](O[C@H]2[C@H](O)[C@@H](O)[C@H](O)O[C@@H]2CO)[C@H](O)[C@@H](O)[C@@H]1O [Maltose]
Effect of the sorbose dehydrogenase on the substrate (in words) (sorbose dehydrogenase [1]; [3]): little effect
Relative activity (%) (sorbose dehydrogenase [1]; [5]): 0%

O=C(O)/C=C\C(=O)O [Maleic acid]
activity at 1000 µM (sorbose dehydrogenase [2]): 82%

O=C[C@H](O)[C@H](O)[C@H](O)CO [D-ribose]
Effect of the sorbose dehydrogenase on the substrate (in words) (sorbose dehydrogenase [1]; [3]): little effect

Oc1cccc2cccnc12 [8-quinolinol]
Relative activity (%) (sorbose dehydrogenase [2]): 106%

CCCC(C)O (stereo not shown) [2-pentanol]
Effect of the sorbose dehydrogenase on the substrate (in words) (sorbose dehydrogenase [1]; [3]): little effect

[Cl][Fe]([Cl])[Cl] [FeCl3]
Relative activity (%) (sorbose dehydrogenase [2]; [4]): 89%

c1ccc(-c2ccccn2)nc1 [2,2′-bipyridine]
activity at 1000 µM (sorbose dehydrogenase [2]; [4]): 88%
